Values joined by “and” are separate entries in the source; they are usually repeats but may differ in a detail not shown here. Equal entries are not always repeated.
Columns and labels:
Type in all cases: in vivo
[1] = tested on: caterpillars of the diamond back moth (Plutella xylostella, sensitive strain); assay: Plutella test (cabbage leaves dipped)
Experimental: (§1) • Solvent: 7 parts by weight of dimethylformamide • Emulsifier: 2 parts by weight of alkylaryl polyglycol ether
(§2) To produce a suitable preparation of active compound, 1 part by weight of active compound is mixed with the stated amounts of solvent and emulsifier, and the concentrate is diluted with emulsifier-containing water to the desired concentration.
Cabbage leaves (Brassica oleracea) are treated by being dipped into the preparation of active compound of the desired concentration and are populated with caterpillars of the diamond back moth (Plutella xylostella, sensitive strain) while the leaves are still moist.
(§3) After the desired period of time, the kill in % is determined. 100% means that all caterpillars have been killed; 0% means that none of the caterpillars have been killed. The kill rates that have been determined are evaluated using Colby's formula.

[2] = tested on: caterpillars of the army worm (Spodoptera frugiperda); assay: Spodoptera frugiperda test (cabbage leaves dipped)
Experimental: as §1, §2
Cabbage leaves (Brassica oleracea) are treated by being dipped into the preparation of active compound of the desired concentration and are populated with caterpillars of the army worm (Spodoptera frugiperda) while the leaves are still moist.
as §3

[3] = tested on: green peach aphid (Myzus persicae); assay: Myzus test (cabbage leaves dipped)
Experimental: as §1, §2
Cabbage leaves (Brassica oleracea) which are heavily infested by the green peach aphid (Myzus persicae) are treated by being dipped into the preparation of active compound of the desired concentration.
(§4) After the desired period of time, the kill in % is determined. 100% means that all aphids have been killed; 0% means that none of the aphids have been killed. The kill rates that have been determined are evaluated using Colby's formula.

[4] = tested on: cotton aphid (Aphis gossypii); assay: Aphis gossypii test (cotton leaves dipped)
Experimental: as §1
To produce a suitable preparation of active compound, 1 part by weight of active compound is mixed with the stated amounts of solvent and emulsifier, and the concentrate is diluted with water to the desired concentrations.
Cotton leaves (Gossypium hirsutum) which are heavily infested by the cotton aphid (Aphis gossypii) are treated by being dipped into the preparation of active compound of the desired concentration.
as §4

[5] = tested on: larvae of the mustard beetle (Phaedon cochleariae); assay: Phaedon larvae test (cabbage leaves dipped)
Experimental: as §1, §2
Cabbage leaves (Brassica oleracea) are treated by being dipped into the preparation of active compound of the desired concentration and are populated with larvae of the mustard beetle (Phaedon cochleariae) while the leaves are still moist.
After the desired period of time, the kill in % is determined. 100% means that all beetle larvae have been killed; 0% means that none of the beetle larvae have been killed. The kill rates that have been determined are evaluated using Colby's formula.

Row | SMILES | Kill rate in % after 3^d ([2]; 4 ppm) | Kill rate in % after 6^d ([3]; 0.16 ppm) | Kill rate in % after 3^d ([5]; 4 ppm) | Kill rate in % after 6^d ([3]; 0.8 ppm) | Kill rate in % after 6^d ([3]; 4 ppm) | Kill rate in % after 6^d ([4]; 0.8 ppm) | also measured
1 | C/C(=N\C#N)N(C)Cc1ccc(Cl)nc1 [acetamiprid (IV)] | 65% | 20% | 5% |  |  |  | Kill rate in % after 3^d ([1]; 4 ppm): 0%; Kill rate in % after 1^d ([4]; 0.16 ppm): 25%
2 | CN/C(=N\[N+](=O)[O-])NCc1cnc(Cl)s1 [chlothianidin (VII)] | 85% |  | 30% | 95% |  |  | 
3 | CN/C(=N\[N+](=O)[O-])NCC1CCOC1 (stereo not shown) [dinotefuran (VIII)] |  |  | 5% |  | 0% | 0% | Kill rate in % after 6^d ([2]; 4 ppm): 70%
4 | O=[N+]([O-])/N=C1\NCCN1Cc1ccc(Cl)nc1 [imidacloprid (II), 1-[(6-chloro-3-pyridinyl)methyl]-N-nitro-2-imidazolidineimine] | 0% | 25% | 35% |  |  |  | Kill rate in % after 6^d ([4]; 0.16 ppm): 25%
5 | N#C/N=C1\SCCN1Cc1ccc(Cl)nc1 [thiacloprid (III)] | 0% |  | 10% | 85% |  | 55% | 
6 | CON=C(C(=O)OC)c1ccccc1CO/N=C(\C)c1cccc(C(F)(F)F)c1 [trifloxystrobin (I), methyl 2-[α-{[(α-methyl-3-trifluoromethylbenzyl)imino]oxy}-o-tolyl]-glyoxylate O-methyl oxime] |  |  |  |  | 0% |  | Kill rate in % after 3^d ([1]; 100 ppm): 0%; Kill rate in % after 3^d ([2]; 100 ppm): 0% and 5%; Kill rate in % after 6^d ([2]; 100 ppm): 0%; Kill rate in % after 6^d ([3]; 20 ppm): 0%; Kill rate in % after 6^d ([3]; 100 ppm): 10%; Kill rate in % after 1^d ([4]; 4 ppm): 0%; Kill rate in % after 6^d ([4]; 4 ppm): 0%; Kill rate in % after 1^d ([4]; 20 ppm): 0%; Kill rate in % after 6^d ([4]; 20 ppm): 0%; Kill rate in % after 3^d ([5]; 100 ppm): 0% and 5%

— patent publication US8461349B2, “Fungicidal active substance combinations containing trifloxystrobin” (Bayer CropScience AG, priority 2001, dated 2013)
